Consider 6 molecules from ChEMBL document CHEMBL1150015, “Rational design of purine nucleoside phosphorylase inhibitors: Design of 2-(2-Haloethyl) and 2-ethenyl substituted quinazolinone alkylating agents” (Bioorg Med Chem Lett, 1992).

In this experiment the target is T1, Purine nucleoside phosphorylase (Homo sapiens) (UniProt P00491).
T1 sequence (whole entry): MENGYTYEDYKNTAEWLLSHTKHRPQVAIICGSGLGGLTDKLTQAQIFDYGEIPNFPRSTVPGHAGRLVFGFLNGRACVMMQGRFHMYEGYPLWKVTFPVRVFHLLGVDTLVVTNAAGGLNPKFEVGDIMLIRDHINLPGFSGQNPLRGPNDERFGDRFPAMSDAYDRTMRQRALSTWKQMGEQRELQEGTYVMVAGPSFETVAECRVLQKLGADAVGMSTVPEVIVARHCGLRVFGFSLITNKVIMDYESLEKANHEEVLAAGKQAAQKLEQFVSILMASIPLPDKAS
Put plainly: Second order rate constant for the inactivation of Purine Nucleoside Phosphorylase by compound in 0.05 M Phosphate Buffer and at a pH 7.4 (u=0.1 KCl) at 30.0 degree Centigrade.
Consider `O=C1C=CC(=O)c2c(O)ncnc21`, for which the k turned out to be 1.62 M⁻¹ s⁻¹.

In turn, `O=C1C=CC(=O)c2c(O)nc(CBr)nc21` returned a k of 3.7 M⁻¹ s⁻¹.

With `Nc1nc(O)c2c(n1)C(=O)C=CC2=O`, the k amounted to 4.73 M⁻¹ s⁻¹.

Take `O=C1C=CC(=O)c2c(O)nc(CCBr)nc21`: the k came to 7.97 M⁻¹ s⁻¹.

The molecule `C=Cc1nc(O)c2c(n1)C(=O)C=CC2=O` gave a k of 3.1 M⁻¹ s⁻¹.

The molecule `O=C1C=CC(=O)c2c(O)nc(-c3ccccc3)nc21` gave a k of 15.9 M⁻¹ s⁻¹.
